One data set concerns HEP G2 cells. In words: Inhibition of cholesterol biosynthesis in cell cultures (HEP G2 cells), incorporation of 14C-sodium acetate in cholesterol. Format: cell-based. Conditions: for IC50 / IC70: Homo sapiens. As to the method:
2) Inhibition of cholesterol biosynthesis in cell cultures (EEP G2 cells)
Determination of the inhibition of the incorporation of ^14 C-sodium acetate in cholesterol
Monolayers of HEP G2 cells in lipoprotein-free medium were preincubated with various concentrations of the sodium salts of the dihydroxycarboxylic acids of the formula II for 1 hour. After adding ^14 C-labeled sodium acetate, the incubation was continued for 3 hours. Tritium-labeled cholesterol was added as an internal standard and an aliquot of the cells was subjected to alkaline hydrolysis. The lipids were extracted using chloroform/methanol 2: 1. After adding carrier cholesterol, the lipid mixture was preparatively separated on TLC plates using chloroform/acetone 9: 1. The cholesterol zone was made visible by staining with iodine vapor, additionally detected using a TLC radio scanner and then scraped off. The amount of ^14 C-cholesterol formed was determined scintigraphically and related to mg of cell protein. The same procedure was carried out with cells from the Bame culture without preincubation with a test compound (so-called "solvent control"). The potency of the test compounds was determined by comparison of the biosynthesized ^14 C-cholesterol in test runs and in "solvent control".

A further data set has as its system serum total cholesterol. In words: Hypocholesterolemic activity in rabbits after p.o. administration. Format: in vivo, male white New Zealand rabbits. Conditions: rabbit p.o. The protocol:
4) Hypocholesterolemic activity in rabbits after p.o. administration
Normolipemic male white New Zealand rabbits, body weight 3-3.5 kg, were divided into groups of 5 animals. The groups in each case received one of the test compounds (sodium salts of the compounds of the formula II), suspended in 1% aqueous methylcellulose (®Tylose MH 300), 5.10 or 20 mg/kg/day daily in the morning by stomach tube. The animals of the control groups received only Tylose MH 300. Every 3-4 days samples of venous blood were taken from all animals 20 hours after the oral administration. The serum total cholesterol was determined enzymatically in these samples using the test combination of Boehringer Mannheim (CHOD-PAP high performance method). The serum cholesterol level of the treated animals was compared with that of the control groups. A "discharge phase" followed the 20-day "treatment phase", in which the change in the serum cholesterol level was further monitored.

The test system of data set [1] is microsomal lipid peroxidation. Put plainly: Inhibition of microsomal lipid peroxidation (in vitro). Format: biochemical. Particulars: for IC50: microsomes, read-out: IC50 (50% inhibition of lipid peroxidation). As to the method:
5) Inhibition of microsomal lipid peroxidation (in vitro)
The inhibition of lipid peroxidation was measured under the experimental conditions described by H. Wafers and H. Sies, Eur. J. Biochem. 174, 353-357 (1988). The microsomes were obtained according to the literature cited therein. IC50 denotes the concentration of the test compound in moles per liter which causes a 50% inhibition of lipid peroxidation.

For the next data set, the system named is serum lipoproteins. Put plainly: Action on serum lipoproteins and other metabolic parameters of male rats in the subchronic test. It is filed as in vivo. Particulars: rat. As to the method: 3) Action on serum lipoproteins and other metabolic parameters of male rats in the subchronic test
Groups of male rats of the strain HOE: WISKf (SPF 71) having a starting weight of above 180 g received the test preparations daily in the morning (sodium salts of the dihydroxycarboxylic acids of the formula II) in polyethylene glycol 400 by stomach tube; the respective control group received only the vehicle. The last (7th) administration was carried out 24 hours before taking blood and sacrificing. There was free access to food and water during the experiment. 24 hours before taking blood, which wall carried out retroorbitally under slight ether anesthesia before and after the treatment period (i.e. on the 1st and 8th day), the food was withdrawn. Total cholesterol was determined in the serum of each individual animal [CHODPAP high performance method of Boehringer Mannheim], and, as a measure of the triglycerides, total glycerol was also determined analytically from the serum pool of all the animals of one group [GPO-PAP high performance method, Boehringer Mannheim].
Immediately after taking blood, the animals were sacrificed by dislocation of the spine, and the relative liver weight, the change in body weight and the food consumption were determined.
For the analysis of the serum lipoproteins, the serum of all the rats of one group was pooled. The serum lipoproteins were separated using the preparative ultracentrifuge.
The following conditions were used for the separation of the fractions VLDL, LDL and HDL:
The determination of the protein was carried out by the method of Lowry et al. [LOWRY O. H., ROSEBOROUGH, N.J., PARR, A. L. and RANDELL, R. J.: J. Biol. Chem. 193, 265 (1951)].

Where [2] appears, read: 10 mg then 20 mg/kg per day, discharge phase 3.
Where [3] appears, read: 10 mg then 20 mg/kg per day, discharge phase 6.
[4] abbreviates: 10 mg then 20 mg/kg per day, discharge phase 11.
[5] abbreviates: 10 mg then 20 mg/kg per day, discharge phase 22.
[6] abbreviates: 10 mg/kg per day (up to 10th day), administration 3.
The mark [7] stands for this setting: 10 mg/kg per day (up to 10th day), administration 10.
Setting [8] is: 20 mg/kg per day (from 11th day), administration 14.
[9] abbreviates: 20 mg/kg per day (from 11th day), administration 17.
[10] abbreviates: 20 mg/kg per day (from 11th day), administration 20.
[11] abbreviates: 100 mg/kg daily by stomach tube, 7 administrations.

Structures can show the parent of a compound that is named as a salt. Where two headings read alike, the source gives them in different places.

Regarding `CC(C)c1cc(-c2ccc(F)cc2)c(OC[C@@H](O)C[C@@H](O)CC(=O)[O-])c(C(C)C)c1.[Na+]` [Compound C, 3(R),5(S)-dihydroxy-6[-2-(4-fluorophenyl)-4,6-diisopropylphenoxy]hexanoicacid sodium salt], the IC50 with HEP G2 cells (HepG2, read-out: IC50 (concentration necessary for a 50% inhibition)) was 27 nM. The IC70 in the data set on HEP G2 cells (HepG2, read-out: IC70 (concentration necessary for a 70% inhibition)) turned out to be 70 nM. Also, in the data set with HEP G2 cells (mevinolin sodium = 100, from IC50), the “Relative potency in %” value is recorded as 185%. Moreover, the “Relative potency in % (value in parentheses)” value in the data set with HEP G2 cells (mevinolin sodium = 100, in parentheses, corresponds to IC70) turned out to be 214%. Besides, the “Serum total cholesterol, % change compared to control group” value (from here on “Serum total cholesterol, % change”) is listed as -13% with serum total cholesterol (setting [2]); -23% with serum total cholesterol (setting [3]); -16% in the data set with serum total cholesterol (setting [4]); “+18%” in the data set on serum total cholesterol (setting [5]); “+7%” with serum total cholesterol (setting [6]); -32% in the data set with serum total cholesterol (setting [7]). Moreover, the “Serum total cholesterol, % change” value is listed as -31% in the data set on serum total cholesterol (setting [8]), -37% in the data set on serum total cholesterol (setting [9]) and -36% in the data set with serum total cholesterol (setting [10]).
Turning to `CC[C@H](C)C(=O)O[C@H]1C[C@@H](C)C=C2C=C[C@H](C)[C@H](CC[C@@H]3C[C@@H](O)CC(=O)O3)[C@H]21` [Mevinolin], the “Serum total cholesterol, % change” value in the data set with serum total cholesterol (setting [2]) is on record as “+14%”; in the data set with serum total cholesterol (setting [3]) it was -1%; with serum total cholesterol (setting [4]) it was “+2%”; in the data set on serum total cholesterol (setting [5]), 0%; in the data set with serum total cholesterol (setting [6]), -12%; in the data set on serum total cholesterol (setting [7]) it was -30%. In addition, the “Serum total cholesterol, % change” value with serum total cholesterol (setting [8]) is listed as -27%; in the data set with serum total cholesterol (setting [9]) it was -24%; with serum total cholesterol (setting [10]), -26%.
As usually defined, the Inhibition is the change of the read-out against control, counted positive when it falls. For the compound `CC(C)c1cc(S)cc(-c2ccc(F)cc2)c1O` [Process Example 4, 2-(P-Fluorophenyl)-4-mercapto-6-isopropylphenol], in data set [1], the “Inhibition at 10^-5 mol/l” value came out at 90% and the IC50 came to 4400 nM.
With `CC(C)c1cc(SC(C)(C)Sc2cc(-c3ccc(F)cc3)c(O)c(C(C)C)c2)cc(-c2ccc(F)cc2)c1O` [Process Example 5, 4,4-(Isopropylidenedithio)-bis-[(2-isopropyl-6-p-fluorophenyl)phenol]], the “Inhibition at 10^-5 mol/l” value in data set [1] is given as 11%.
For the compound `CC(C)c1cc(Sc2ccccc2)cc(-c2ccc(F)cc2)c1O` [Process Example 7, 2-(p-Fluorophenyl)-4-(phenylthio)-6-isopropylphenol], in data set [1], the “Inhibition at 10^-5 mol/l” value was 92% and the IC50 was 4000 nM.
`CC(C)Sc1cc(-c2ccc(F)cc2)c(O)c(C(C)C)c1` [Process Example 8, 2-(p-Fluorophenyl)-4-(isopropylthio)-6-isopropylphenol]: in data set [1], the “Inhibition at 10^-5 mol/l” value worked out at 1%.
On to `Oc1c(-c2ccc(F)cc2)cc(Sc2ccc(F)cc2)cc1C1CC1` [Process Example 12, 2-(p-Fluorophenyl)-4-(p-fluorophenylthio)-6-cyclopropylphenol], for which, in data set [1], the “Inhibition at 10^-5 mol/l” value is 99% and the IC50 stood at 1500 nM.
As for `CCOC(=O)C(C)(C)Oc1ccc(Cl)cc1` [clofibrate, reference compound], in the data set on serum lipoproteins (setting [11]), the “Body weight, % changes in the mean value relative to starting” value was “+8%”; the “Food consumption, % changes in the mean value relative to control” value is “+1%”; the “Glycerol VLDL, % change compared to control” value is reported as “+4%”; the “Liver weight, % changes in the mean value relative to control” value was “+15%”. Moreover, in the data set on serum lipoproteins (setting [11]), the “Protein LDL, % change compared to control” value was -9%; the “Protein VLDL, % change compared to control” value was -16%; the “Total cholesterol HDL, % change compared to control” value is -29%; the “Total cholesterol LDL, % change compared to control” value is reported as -19%. Further, the “Total cholesterol VLDL, % change compared to control” value with serum lipoproteins (setting [11]) is on record as -40%. In addition, the “Cholesterol HDL/LDL” value in the data set with serum lipoproteins (100 mg/kg daily, control standardization to 1.00) is given as 0.88.
Regarding `CC[C@H](C)C(=O)O[C@H]1C[C@@H](C)C=C2C=C[C@H](C)[C@H](CC[C@@H](O)C[C@@H](O)CC(=O)O)[C@H]21` [mevinolin sodium salt, reference compound], in the data set with HEP G2 cells (HepG2, sodium salts, test compounds corrected by deviation of mevinolin sodium from its mean value, read-out: IC50 (concentration necessary for a 50% inhibition)), the IC50 amounted to 50 nM. Further, the IC70 with HEP G2 cells (HepG2, sodium salts, test compounds corrected by deviation of mevinolin sodium from its mean value, read-out: IC70 (concentration necessary for a 70% inhibition)) worked out at 150 nM. The “IC70 (concentration necessary for a 70% inhibition)” value in the data set on HEP G2 cells (sodium salts, test compounds corrected by deviation of mevinolin sodium from its mean value) came to 150 nM.

The values above are taken from patent publication US5294724A, “4-hydroxytetrahydropyran-2-ones and the corresponding dihydroxycarboxylic acid derivatives, salts and esters and a process for their preparation” (priority 1989, dated 1994).
